According to PubChem BioAssay AID256 (DTP/NCI, 2004):
Values joined by “and” are separate entries in the source; they are usually repeats but may differ in a detail not shown here. Identical values can stand only once. Toxic doses and inconclusive results are not listed. Rule for the calls: active = survival T/C of 150% or more; inactive = T/C below 125% in these data.

Test system: CD2F1 mice, L1210 leukemia ip, survival T/C
Experiment: NCI In Vivo Anticancer Drug Screen. Data for tumor model L1210 Leukemia (intraperitoneal) in CD2F1 (CDF1) mice
Conditions: higher = longer survival
Method in brief: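 In this screen, transplantable tumors were grown in mice given either the compound or its vehicle. Results were expressed as the treated measurement relative to the control measurement.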

[1] = endpoint: mean survival time, dose: 100.0 mg/kg/injection, schedule: Q04DX003 (ip), vehicle: saline with Tween-80
[2] = endpoint: mean survival time, dose: 200.0 mg/kg/injection, schedule: Q04DX003 (ip), vehicle: saline with Tween-80
[3] = endpoint: mean survival time, dose: 400.0 mg/kg/injection, schedule: Q04DX003 (ip), vehicle: saline with Tween-80
[4] = endpoint: mean survival time, dose: 75.0 mg/kg/injection, schedule: Q01DX001 (ip), vehicle: saline
[5] = endpoint: mean survival time, dose: 150.0 mg/kg/injection, schedule: Q01DX001 (ip), vehicle: saline
[6] = endpoint: mean survival time, dose: 200.0 mg/kg/injection, schedule: Q01DX001 (ip), vehicle: saline with Tween-80
[7] = endpoint: mean survival time, dose: 100.0 mg/kg/injection, schedule: Q01DX001 (ip), vehicle: saline with Tween-80
[8] = endpoint: mean survival time, dose: 400.0 mg/kg/injection, schedule: Q01DX001 (ip), vehicle: saline with Tween-80
[9] = endpoint: mean survival time, dose: 400.0 mg/kg/injection, schedule: Q01DX009 (ip), vehicle: saline with Tween-80

Measured: T/C

CCOC(=O)c1ccc(NC(N)=S)cc1
inactive: endpoint: mean survival time, dose: 50.0 mg/kg/injection, schedule: Q01DX009 (ip), vehicle: other 98 % of control | endpoint: mean survival time, dose: 100.0 mg/kg/injection, schedule: Q01DX009 (ip), vehicle: other 95 % of control | endpoint: mean survival time, dose: 200.0 mg/kg/injection, schedule: Q01DX009 (ip), vehicle: other 95 % of control | endpoint: mean survival time, dose: 400.0 mg/kg/injection, schedule: Q01DX009 (ip), vehicle: other 91 % of control

Cc1nc(C(=O)O)c(C)c(=O)[nH]1
inactive: endpoint: mean survival time, dose: 25.0 mg/kg/injection, schedule: Q01DX005 (ip), vehicle: water 98 % of control | endpoint: mean survival time, dose: 50.0 mg/kg/injection, schedule: Q01DX005 (ip), vehicle: water 104 % of control | endpoint: mean survival time, dose: 100.0 mg/kg/injection, schedule: Q01DX005 (ip), vehicle: water 89 % of control | endpoint: mean survival time, dose: 200.0 mg/kg/injection, schedule: Q01DX005 (ip), vehicle: water 87 % of control

O=C(c1ccc2c(c1)OCO2)c1ccc[nH]1
inactive: [1] 94 % of control | [2] 91 % of control

CCCCCCC(O)/C=C/c1ccc(Cl)cc1 (stereo unspecified)
inactive: [1] 110 % of control | [2] 102 % of control | [3] 111 % of control

Cc1[se]c2ccccc2[n+]1C
inactive: [4] 98 % of control | [5] 107 % of control

C[C@H]1CP(c2ccccc2)(c2ccccc2)(c2ccccc2)O[C@@]1(C(=O)c1ccccc1)c1ccccc1
inactive: [6] 91 % of control

COC(=O)C1CCC2C3CC=C4CC(O)CCC4(C)C3CCC12C (stereo unspecified)
inactive: [7] 98 % of control | [6] 93 % of control | [8] 93 % of control

O=C(C[n+]1cccc(C(=O)c2ccccc2)c1)c1ccccc1
inactive: endpoint: mean survival time, dose: 9.4 mg/kg/injection, schedule: Q01DX009 (ip), vehicle: saline 94 % of control | endpoint: mean survival time, dose: 18.8 mg/kg/injection, schedule: Q01DX009 (ip), vehicle: saline 94 % of control | endpoint: mean survival time, dose: 37.5 mg/kg/injection, schedule: Q01DX009 (ip), vehicle: saline 93 % of control | endpoint: mean survival time, dose: 37.5 mg/kg/injection, schedule: Q04DX003 (ip), vehicle: saline 96 % of control | [4] 100 % of control | endpoint: mean survival time, dose: 75.0 mg/kg/injection, schedule: Q04DX003 (ip), vehicle: saline 94 % of control | [5] 97 % of control

CC1(C)CCOC1=O
inactive: endpoint: mean survival time, dose: 100.0 mg/kg/injection, schedule: Q01DX001 (ip), vehicle: saline 105 % of control | endpoint: mean survival time, dose: 200.0 mg/kg/injection, schedule: Q01DX001 (ip), vehicle: saline 103 % of control | endpoint: mean survival time, dose: 400.0 mg/kg/injection, schedule: Q01DX001 (ip), vehicle: saline 103 % of control

O=C(/C=C\c1ccc([N+]([O-])=Nc2ccc(/C=C/C(=O)c3ccccc3)cc2)cc1)c1ccccc1
inactive: [7] 102 % of control | [6] 86 % of control | [8] 98 % of control

O=C1c2ccccc2C(=O)N1C1C=CC=CC=C1
inactive: endpoint: mean survival time, dose: 100.0 mg/kg/injection, schedule: Q01DX009 (ip), vehicle: saline with Tween-80 95 % of control | [1] 104 % of control | endpoint: mean survival time, dose: 200.0 mg/kg/injection, schedule: Q01DX009 (ip), vehicle: saline with Tween-80 93 % of control | [2] 97 % of control | [9] 96 % of control | [3] 97 % of control

O=C(C[n+]1cc2ccccc2c2ccccc21)c1ccccc1
inactive: endpoint: mean survival time, dose: 100.0 mg/kg/injection, schedule: Q04DX003 (ip), vehicle: saline 95 % of control | endpoint: mean survival time, dose: 200.0 mg/kg/injection, schedule: Q04DX003 (ip), vehicle: saline 86 % of control

CCOc1ccc(NC(=S)NC(=O)/C=C/c2ccccc2)cc1
inactive: endpoint: mean survival time, dose: 12.5 mg/kg/injection, schedule: Q01DX009 (ip), vehicle: saline with Tween-80 93 % of control and 96 % of control | [7] 95 % of control | endpoint: mean survival time, dose: 100.0 mg/kg/injection, schedule: Q04DX002 (ip), vehicle: saline with Tween-80 95 % of control and 98 % of control | [1] 93 % of control | [6] 100 % of control | endpoint: mean survival time, dose: 200.0 mg/kg/injection, schedule: Q04DX002 (ip), vehicle: saline with Tween-80 94 % of control and 97 % of control | [2] 96 % of control | [8] 93 % of control | [9] 108 % of control and 111 % of control | endpoint: mean survival time, dose: 400.0 mg/kg/injection, schedule: Q04DX002 (ip), vehicle: saline with Tween-80 94 % of control and 101 % of control | [3] 96 % of control

Cc1c2ccccc2cc2cccc[n+]12
inactive: endpoint: mean survival time, dose: 2.5 mg/kg/injection, schedule: Q01DX009 (ip), vehicle: saline 95 % of control and 100 % of control | endpoint: mean survival time, dose: 5.0 mg/kg/injection, schedule: Q01DX009 (ip), vehicle: saline 95 % of control and 101 % of control | endpoint: mean survival time, dose: 10.0 mg/kg/injection, schedule: Q01DX009 (ip), vehicle: saline 102 % of control and 110 % of control | endpoint: mean survival time, dose: 20.0 mg/kg/injection, schedule: Q01DX009 (ip), vehicle: saline 97 % of control and 106 % of control

COC1C(CO)OC(n2c3c(Cl)cccc3c3c4c(c5c6cccc(Cl)c6[nH]c5c32)C(=O)NC4=O)C(O)C1O (stereo unspecified)
inactive: endpoint: median survival time, dose: 12.5 mg/kg/injection, schedule: Q01DX009 (ip), vehicle: distilled water + Tween-80 105 % of control and 112 % of control | endpoint: median survival time, dose: 25.0 mg/kg/injection, schedule: Q01DX009 (ip), vehicle: distilled water + Tween-80 114 % of control | endpoint: median survival time, dose: 36.0 mg/kg/injection, schedule: Q01DX009 (ip), vehicle: distilled water + Tween-80 113 % of control | endpoint: median survival time, dose: 50.0 mg/kg/injection, schedule: Q01DX009 (ip), vehicle: distilled water + Tween-80 112 % of control | endpoint: median survival time, dose: 60.0 mg/kg/injection, schedule: Q01DX009 (ip), vehicle: distilled water + Tween-80 115 % of control | endpoint: median survival time, dose: 100.0 mg/kg/injection, schedule: Q01DX009 (ip), vehicle: distilled water + Tween-80 121 % of control and 103 % of control | endpoint: median survival time, dose: 166.7 mg/kg/injection, schedule: Q01DX009 (ip), vehicle: distilled water + Tween-80 122 % of control | endpoint: median survival time, dose: 200.0 mg/kg/injection, schedule: Q01DX009 (ip), vehicle: distilled water + Tween-80 95 % of control

CC(=O)C(=O)O.CC(=O)C(=O)O.[NH-]C1CCCCC1[NH-].[Pt+2] (stereo unspecified)
inactive: endpoint: mean survival time, dose: 1.56 mg/kg/injection, schedule: Q04DX003 (ip), vehicle: other 109 % of control | endpoint: mean survival time, dose: 12.5 mg/kg/injection, schedule: Q04DX003 (ip), vehicle: other 120 % of control | endpoint: median survival time, dose: 25.0 mg/kg/injection, schedule: Q01DX009 (ip), vehicle: dextrose 87 % of control

O=C(NCCN1CCCCC1)C(O)(C1CCCCC1)C1CCCCC1
inactive: [4] 97 % of control | [5] 97 % of control | endpoint: mean survival time, dose: 300.0 mg/kg/injection, schedule: Q01DX001 (ip), vehicle: saline 97 % of control

Cc1ncc(COP(=O)(O)O)c(C=NC(CCCCN)C(=O)O)c1O.O.[Cu] (stereo unspecified)
inactive: endpoint: mean survival time, dose: 12.5 mg/kg/injection, schedule: Q01DX001 (ip), vehicle: saline with Tween-80 98 % of control | endpoint: mean survival time, dose: 25.0 mg/kg/injection, schedule: Q01DX001 (ip), vehicle: saline with Tween-80 92 % of control | endpoint: mean survival time, dose: 50.0 mg/kg/injection, schedule: Q01DX001 (ip), vehicle: saline with Tween-80 98 % of control

CC1OC(n2cc(Cl)c(=O)[nH]c2=O)C2OC(C)(C)OC2C1=O (stereo unspecified)
inactive: endpoint: median survival time, dose: 25.0 mg/kg/injection, schedule: Q01DX005 (ip), vehicle: Klucel (hydroxypropylcellulose) (HPC) 102 % of control | endpoint: median survival time, dose: 50.0 mg/kg/injection, schedule: Q01DX005 (ip), vehicle: Klucel (hydroxypropylcellulose) (HPC) 100 % of control | endpoint: median survival time, dose: 100.0 mg/kg/injection, schedule: Q01DX005 (ip), vehicle: Klucel (hydroxypropylcellulose) (HPC) 102 % of control | endpoint: median survival time, dose: 200.0 mg/kg/injection, schedule: Q01DX005 (ip), vehicle: Klucel (hydroxypropylcellulose) (HPC) 107 % of control
